Measured values taken from patent US6544952B1, “Synthesis of glycoconjugates of the globo-H epitope and uses thereof” (Sloan-Kettering Institute for Cancer Research, priority 1994, dated 2003).
Where two headings read alike, the source gives them in different places.

Key:
[1] = test system: mice (antibodies against the immunizing antigen); assay: immunization of mice with Le^y conjugates 17c and 32c, ELISA antibody titer; format: in vivo; conditions: one set of 5 mice; graphs J-L
Method: The stage was set for immunizations with conjugates 17c and 32c. The immunizations with the BSA conjugate 17c were carried out on two sets of 5 mice and the immunizations with the ceramide conjugate 32c were carried out on one set of 5 mice. An enzyme-linked immunosorbant assay (ELISA) was used to measure antibody titer (FIG. 20(b)). Three different ELISA experiments were performed to measure antibody titer. The first is the measure of total antibody response (aIg), that is the summation of IgM and IgG antibodies, as shown in graphs A, D, G. and J of FIGS. 21(a) and (b). The other two assays measure IgM and IgG antibodies separately as indicated in the graphs. The ELISA assay (see FIG. 20(b)) involves the immobilization of a test antigen in a microtiter well. The serum to be tested for antibodies is placed in the well. Any antibodies in the serum recognizing the test antigen will remain in the well after thorough washing. Next, modified anti-mouse Ig, IgM, or IgG antibodies are placed in the well. […] The presence of the alkaline phosphatase-linked secondary antibody causes cleavage of the phosphate, yielding the yellow p-nitrophenolate anion, which can be quantified using spectrophotometric techniques.
Graphs A, B, and C in FIG. 21(a) show the measured titers of total antibody Ig (A), IgM (B), and IgG (C) type antibodies in five mice immunized with conjugate 17c. […]

MBr1 monoclonal antibody = assay: Immune TLC with monoclonal antibody MBr1; format: binding, murine; conditions: comparable staining with 1/10 the amount of antigen
[2] = test system: MAb MBr1 with breast cancer cell lines such as MCF-7; assay: flow cytometry inhibition assay of mAb MBr1 reactivity with MCF-7; format: cell-based; conditions: for inhibition of reactivity of MAb MBr1 with breast cancer cell lines such as MCF-7: 8 μg/ml of preparation
Method: By Thin Layer Chromatography (TLC) the 2 preparations migrate as similar single bands. […] The high level of reactivity of the β structure with mAb MBr1 was confirmed using flow cytometry inhibition assays. Reactivity of MAb MBr1 with breast cancer cell lines such as MCF-7 was 98% inhibited by 8 μg/ml of the β linkage preparation but was only 6% inhibited by 8 μg of the α-linkage preparation.
(§1) The breast tumor glycolipid associated antigen 2 (See FIG. 24) isolated by Hakomori and co-workers from MCF-7 cells, and termed globe H, constituted a promising possibility for exploration (Kannagi, R., et al., J. Biol. Chem. 1983, 258, 8934; Bremer, G., et al., J. Biol. Chem. 1984 259, 14773). Early studies in this area were facilitated by the immunocharacterization of the antigen by the murine monoclonal antibody Mbr1 (Menard, S., et al., Cancer Res. 1983, 43, 1295). Previously, we had described the total synthesis of the hexacyclic globo H glycal 1 (See FIG. 24) by the method of glycal assembly (See FIG. 24) (Bilodeau, M.T., et al., J. Am. Chem. Soc. 1995 117, 7840; Park, et al., J. Am. Chem. Soc. 1996, 118, 11488). This system was carried forward to reach antigen 2 (See FIG. 24), whose structure assignment was verified by unambiguous spectroscopic corroboration through this synthesis.

mAb MBr1 = assay: binding to mAb MBr1, mapping of structural requirements; design: species or system murine
Description: as §1
We then built upon the logic of our synthesis to prepare congeners of the compound and to use them to map the structural requirements for binding to the mAb MBr1.

[3] = test system: antisera binding to globo H antigen 2; assay: inhibition of binding of anti-globo H antisera to globo H antigen 2 (ELISA); design: species or system mice
Description: As an indication of specificity, we conducted assays with compounds 2-8 of FIGS. 24 and 25 to determine their ability to inhibit the binding of antisera to the fully synthetic globo H antigen 2 (FIG. 28). […] Partial inhibition resulted from truncated globo H compounds, but not with unrelated compounds such as ganglioside GD3. These findings are consistent with a polyclonal serological response in which different antibodies react with different portions of compound 2.

Row | Compound | IgG response [1] | IgM response [1] | reactivity with MBr1 monoclonal antibody, β-form relative to the other form (MBr1 monoclonal antibody) | inhibition of MBr1 binding to MCF-7 cells [2] | inhibition of reactivity of MAb MBr1 with breast cancer cell lines such as MCF-7 [2] | binding to mAb MBr1 (mAb MBr1) | binding to mAb MBr1 (mAb MBr1; listed as 1b) | inhibition of binding of antisera to globo H antigen 2 [3]
1 | CCCCCCCCCCCCCC=C[C@@H](O)[C@@H](CO[C@@H]1O[C@H](CO)[C@@H](O[C@@H]2O[C@H](CO)[C@H](O)[C@H](O)[C@H]2O[C@@H]2O[C@@H](C)[C@@H](O)[C@@H](O)[C@@H]2O)[C@H](O[C@@H]2O[C@@H](C)[C@@H](O)[C@@H](O)[C@@H]2O)[C@H]1NC(C)=O)NC(=O)CCCCCCCCCCCCCCC [32c, (3R)-Hydroxy-(2R)-hexadecanamido-4-octadecenyl-[[[(6-deoxy-a-L-galactopyranosyl)-(1→2)]-(b-D-galactopyranosyl)-(1→4)]-(6-deoxy-a-L-galactopyranosyl)-(1→3)]-2-deoxy-2-acetamido-b-D-glucopyranose] | No mice showed any IgG response | Most mice showed only a weak IgM response |  |  |  |  |  | 
2 | Fuca1→GalB1→3GalNAcB1→3Galα1→4GlB1→4GcB1→1Cer [compound 2] |  |  | 10 times | inhibited its binding to MCF-7 cells | 98% | bind to the murine monoclonal antibody (mAb) MBr1 | bind to the monoclonal antibody MBr1 | complete inhibition
3 | Fucα1→2GalB1→3GalNAcα1→3Galα1→4GalB1→1Cer [α-linkage preparation] |  |  |  |  | 6% |  |  | 
